Where two headings read alike, the source gives them in different places.
What was measured:
[1] = Digestion test in vitro (enzyme derived from rat small intestinal mucous membrane); type: in vitro ADME; details: small intestinal mucosa enzyme, Tables 4 and 5, rat small intestinal enzyme, read-out: Decomposition rate
Procedure: (§1) By using a trehalose solution of a high-purity hydrous crystalline trehalose prepared by the method in Experiment 1-2, a digestion test of trehalose was carried out in vitro in accordance with the method as reported by K. Okada et al. in JOURNAL OF JAPANESE SOCIETY OF NUTRITION AND FOOD SCIENCE, Vol.43, No.1, pp.23-29 (1990). The digestibility of trehalose was evaluated based on the decomposition rate (%) calculated by the following equation: [formula]
As evident from the results in Table 4, trehalose was not substantially hydrolyzed by the enzyme derived from rat small intestinal mucous membrane. By using the rat enzyme, disaccharides were tested for their digestibility similarly as above.

[2] = cited from earlier work
[3] = improper dose or route of administration; cited from earlier work
[4] = system: living bodies; details: prior art; cited from earlier work
[5] = Digestion test in vitro (salivary amylase); type: in vitro ADME; details: Table 4, salivary amylase, read-out: Decomposition rate
Procedure: as §1

[6] = Digestion test in vitro (gastric acid); type: in vitro ADME; details: Table 4, gastric acid, read-out: Decomposition rate
Procedure: as §1

[7] = Digestion test in vitro (pancreatic amylase); type: in vitro ADME; details: Table 4, pancreatic amylase, read-out: Decomposition rate
Procedure: as §1

[8] = system: human volunteers; assay: Utilization test in vivo by oral administration (blood sugar and insulin levels)
Procedure: In accordance with the method reported by H. Atsuji et al. in Journal of Clinical Nutrition, Vol.41, No.2, pp.200-208 (1972), 30 g of a hydrous crystalline trehalose prepared by the method in Experiment 1-2 was dissolved in water into a 20 w/v % aqueous trehalose solution, and prescribed amounts of which were orally administered to 6 male volunteers, 26-31-year-old. The volunteers were let blood at a prescribed time interval, and each blood sample was measured its blood sugar level, i.e. glucose concentration (mg/dl) and insulin level (μU/ml). As a control, glucose was used. The results of both levels were the mean values of 6 volunteers. FIGS. 1 and 2 show the time courses of blood sugar- and insulin-levels, respectively. In the figures, the solid- and dashed-lines mean the time courses of trehalose and insulin, respectively.

[9] = system: rabbits; details: rabbit
Procedure: (§2) A hydrous crystalline trehalose prepared by the method in Experiment 1-2 was dissolved in a refined water, and the resultant solution was membrane filtered, concentrated and recrystallized to obtain a pyrogen-free hydrous crystalline trehalose. The crystal thus obtained was dissolved in injectable distilled water into a 10 w/v % solution isotonic to rabbit blood as trehalose infusion. By using 6 rabbits, about 2-3 kg weight, the infusion was rapidly administered to their ear veins at a dose of one g/kg body weight within 1.5 min, followed by collecting their blood at a prescribed time interval, and subjecting the collected blood samples to the measurements of their sugar levels (glucose concentration (mg/dl)) and insulin levels (μU/ml). As a control, 5 w/v % glucose solution isotonic to rabbit blood was similarly administered to rabbit veins at a dose of 0.5 g/kg body weight. Each result was expressed by the mean value of the 6 rabbits, and the time courses of the blood sugar- and insulin-levels of the rabbits were respectively shown in FIGS. 3 and 4. In the figures, the solid- and dashed-lines mean the time courses of trehalose and insulin in rabbit blood, respectively.

[10] = system: rabbits; details: rabbit; for amount secreted in urine (in words): in vivo
[11] = Acute toxicity test; type: in vivo; details: mouse, in vivo; oral, mice; "the value was not so accurate"
Procedure: (§3) By using mice, trehalose was tested for its acute toxicity by orally administering it to the mice a hydrous crystalline trehalose prepared by the method in Experiment 1-2. […] Based on the result, the LD50 was 50 g/kg or higher, though the value was not so accurate.

[12] = system: mice; assay: Acute toxicity test; type: in vivo; details: oral
Procedure: as §3

[13] = Isotonicity to rabbit blood; type: physicochemical
Procedure: as §2

[14] = system: amylases; details: Japanese Patent Laid-Open No. 240,758/88; cited from earlier work
[15] = 20 w/v % aqueous solution, 6 male volunteers, mean

SMILES: OC[C@H]1O[C@@](CO)(O[C@H]2O[C@H](CO)[C@@H](O)[C@H](O)[C@H]2O)[C@@H](O)[C@@H]1O [Sucrose]
- metabolised [1]: 25.1%
- hydrolysis under acidic conditions [2]: readily hydrolyzed

SMILES: OC[C@H]1O[C@H](O[C@H]2[C@H](O)[C@@H](O)[C@H](O)O[C@@H]2CO)[C@H](O)[C@@H](O)[C@@H]1O (mixture of isomers) [Maltose]
- metabolised [1]: 80.1%

SMILES: OC[C@H]1O[C@H](OC[C@H]2OC(O)[C@H](O)[C@@H](O)[C@@H]2O)[C@H](O)[C@@H](O)[C@@H]1O (some centres unmarked) [Isomaltose]
- metabolised [1]: 13.2%

SMILES: OC[C@@H](O)[C@H](O)[C@@H](O)CO [xylitol]
- diarrhea [3]: may cause serious diarrhea

SMILES: OC[C@@H](O)[C@@H](O[C@H]1O[C@H](CO)[C@@H](O)[C@H](O)[C@H]1O)[C@H](O)[C@@H](O)CO [maltitol]
- metabolism and utilization by living bodies [4]: not readily metabolized and utilized by living bodies

SMILES: OC[C@@H](O)[C@@H](O[C@@H]1O[C@H](CO)[C@H](O)[C@H](O)[C@H]1O)[C@H](O)[C@@H](O)CO [lactitol]
- metabolism and utilization by living bodies [4]: not readily metabolized and utilized by living bodies

SMILES: OC[C@H]1O[C@H](O[C@H]2O[C@H](CO)[C@@H](O)[C@H](O)[C@H]2O)[C@H](O)[C@@H](O)[C@@H]1O [trehalose, O-α-D-glucopyranosyl α-D-glucopyranoside]
- metabolised [5]: 0%
- degraded [6]: 0%
- metabolised [7]: 0%
- metabolised [1]: 1.3%
- assimilation, metabolism and utilization [8]: readily assimilated, metabolized and utilized by living bodies as energy source
- time of maximum of blood sugar level after administration [8, 15]: 30 to 45 min
- time of maximum of insulin level after administration [8, 15]: 30 to 45 min
- dynamics of blood sugar- and insulin-levels against glucose ([8]; FIGS. 1 and 2): tended to show a time lag
- hydrolysis, metabolism and utilization in vivo [9]: readily hydrolyzed into glucose in vivo, metabolized and utilized by living bodies as energy source
- amount secreted in urine (in words) ([9]; in vivo): absolutely low
- dynamics of blood sugar- and insulin-levels against glucose ([9]; in vivo): tended to show a time lag
- hydrolysis, metabolism and utilization in vivo [10]: readily hydrolyzed into glucose in vivo, metabolized and utilized by the living bodies as energy source
- amount secreted in urine (in words) [10]: absolutely low
- LD50 [11]: ≥ 50000 mg/kg
- toxicity (in words) [12]: relatively-low toxicity
- mortality ([12]; highest possible dose): no mouse died
- concentration isotonic to rabbit blood [13]: 10 w/v %
- metabolism and utilization by living bodies [4]: not substantially assimilated and utilized by the body
- hydrolysis by amylases [14]: not substantially hydrolyzed by amylases

SMILES: OC[C@H]1O[C@@H](O[C@H]2[C@H](O)[C@@H](O)C(O)O[C@@H]2CO)[C@H](O)[C@@H](O)[C@@H]1O (some centres unmarked) [Cellobiose]
- metabolised [1]: 1.2%

SMILES: OC[C@H]1O[C@@H](O[C@H]2[C@H](O)[C@@H](O)C(O)O[C@@H]2CO)[C@H](O)[C@@H](O)[C@H]1O (some centres unmarked) [Lactose]
- metabolised [1]: 9.7%

SMILES: O=C[C@H](O)[C@@H](O)[C@H](O)[C@H](O)CO [glucose, reference compound]
- amount secreted in urine (in words) ([9]; in vivo): absolutely low
- amount secreted in urine (in words) [10]: absolutely low
- concentration isotonic to rabbit blood [13]: 5 w/v %

SMILES: OC[C@@H](O)[C@@H](O)[C@H](O)[C@@H](O)CO [sorbitol]
- diarrhea [3]: may cause serious diarrhea

— patent US5576303A, “Energy-supplementing saccharide source and its uses” (priority 1993, dated 1996)
